Data as given in patent US20220323443A1, “COMBINATION THERAPY FOR CANCER TREATMENT” (TAKEDA PHARMACEUTICAL COMPANY LIMITED, priority 2019, published 2022).
Entries after “also recorded” stand apart in the source; their conditions may differ.

How the values were obtained:
[1] = tested on: homologous recombination (HR) repair in 293T cells; test: Homologous recombination (HR) repair assay, DR-GFP / I-SceI reporter, flow cytometry; type: cell-based, human; settings: 300 nM Compound 1, 72 hours after transfection
Experimental: The efficiency of homologous recombination (HR) was assessed using an I-SceI expression plasmid (I-SceI) and an I-SceI repair reporter plasmid (DR-GFP) composed of two differentially mutated GFP genes, one of which contained a unique I-SceI restriction site (FIG. 1A). The assay works through gene conversion repair of a double strand break caused by I-SceI digestion. DR-GFP plasmids repaired by homologous recombination express GFP. Human embryonic kidney 293T cells were transfected with either 5 μg of DR-GFP plus 10 μg of I-SceI in presence (300 nM) or absence of Compound 1. Seventy-two hours after transfection, the cells were fixed with 4% paraformaldehyde for 20 min at room temperature, and the number of GFP-expressing cells was assessed by flow cytometry (FIGS. 1B and 1C).

[2] = tested on: COLO205 human colorectal adenocarcinoma xenografts; test: In vivo antitumor activity of Compound 1 and irradiation in nude mice; set-up: species or system mouse; settings: Compound 1 40 mg/kg orally once daily Day 1-14 combined with irradiation 3 Gy on Day 1, 2, 3, 8, 9, 10
Experimental: Human colorectal carcinoma cell line, COLO205 xenograft model was established by subcutaneous injection of cell suspension (5×10^6 cells/100 μl/site, in 1:1 mixture of Hanks' balanced salt and BD Matrigel™ Matrix (BD biosciences)). Mice with tumor size of approximately 200 mm^3 were randomly assigned to dose groups on the day before start date of dosing (Day 0). Compound 1 was suspended in 0.5 w/v % methylcellulose and administered orally to mice at a dose of 40 mg/kg once daily on Day 1-14. Mice in irradiation groups were irradiated at a dose of 3 Gy daily on Day 1, 2, 3, 8, 9 and 10 under pentobarbital anesthesia. Tumors on the flanks of the mice were irradiated using an X-ray irradiator (MBR-1520R-3, Hitachi Power Solutions Co., Ltd., Ibaraki) and non-tumor part of mice were shielded by lead plate. Tumor size was measured by caliper and tumor volume was estimated using the equation V=(LW^2)/2, where L and W are tumor length and width, respectively and reported in cubic millimeters (FIG. 3).

[3] = tested on: B16F10 (Melanoma); test: In vivo combination study, syngeneic mouse tumor isograft model; settings: note to Table 9
[4] = tested on: repair of IR-induced DSBs in HeLa cells; test: 53BP1 foci assay of irradiation-induced DNA double-strand breaks; type: cell-based, human
Experimental: Human cervical adenocarcinoma HeLa cells were treated with or without Compound 1 treatment at 300 nM, followed by irradiation (IR) treatment at 4 Gy using an X-ray irradiator (MBR-1520R-3, Hitachi Power Solutions Co., Ltd., Ibaraki). Eight or forty-eight hours after IR treatment, the cells were fixed with 4% paraformaldehyde for the following immunofluorescent experiments. Foci formation of 53BP1 was used as an index of IR-induced DSBs. After permeabilization, the cells were incubated with anti-53BP1 antibody (2 μg/ml) for 60 min at 37° C., and then incubated with Alexa-594-conjugated secondary antibody for 30 min at 37° C. Images were captured with an Axiovert 200M microscope (Carl Zeiss).

## Cc1[nH]ncc1-c1cc2nc([C@@H]3CC4CCN3CC4)[nH]c(=O)c2s1 [Compound 1, 2-[(2S)-1-azabicyclo[2.2.2]oct-2-yl]-6-(3-methyl-1H-pyrazol-4-yl)thieno[3,2-d]pyrimidin-4(3H)-one]
[1]
  HR repair activity (GFP-expressing cells): suppresses HR repair activity
[2]
  antitumor activity (tumor volume): strong antitumor activity and enhanced antitumor efficacy compared to either single treatment alone
[3]; by note order: Anti-mPD-1 study in B16F10 (67 mm^3)
  CR per group: 0 CR in PD-1 group and 0 CR in Compound 1 group, and 0 CR in Compound 1/PD-1 combo group
[3]; by note order: NKTR-214 + anti-mPD-1 study in B16F10 (67 mm^3)
  CR per group: 0 CR in NKTR-214 + PD-1 group, and 0 CR in Compound 1 group, and 0 CR in Compound 1/NKTR-214/PD-1 triple combo group
[3]; by note order: NKTR-214 study in B16F10 (67 mm^3)
  CR per group: no CR
[4]; 300 nM Compound 1 + IR 4 Gy, HeLa cells
  repair of IR-induced DSBs: delays repair of IR-induced DSBs; also recorded: delays repair of irradiation induced double-strand breaks (DSBs)
[4]; co-treated with IR 4 Gy and Compound 1 300 nM, 48 h after IR treatment, HeLa
  53BP1 foci-positive cells (≥10 foci/cell): still observed with high frequency
